Target: T1, cloned human glucagon receptor (Homo sapiens, UniProt P47871)
T1 construct: expressed in transfected cells; host or cells: 293 HEK cells, hygromycin-selected; crude plasma membranes
Test: Glucagon Receptor (hGlucR) Binding Assay (SPA, I-125 glucagon competition)
Text: The second supernate is combined with the first supernate.
The specific activity is 2200 Ci/mmol.

T1 sequence (P47871 26-477): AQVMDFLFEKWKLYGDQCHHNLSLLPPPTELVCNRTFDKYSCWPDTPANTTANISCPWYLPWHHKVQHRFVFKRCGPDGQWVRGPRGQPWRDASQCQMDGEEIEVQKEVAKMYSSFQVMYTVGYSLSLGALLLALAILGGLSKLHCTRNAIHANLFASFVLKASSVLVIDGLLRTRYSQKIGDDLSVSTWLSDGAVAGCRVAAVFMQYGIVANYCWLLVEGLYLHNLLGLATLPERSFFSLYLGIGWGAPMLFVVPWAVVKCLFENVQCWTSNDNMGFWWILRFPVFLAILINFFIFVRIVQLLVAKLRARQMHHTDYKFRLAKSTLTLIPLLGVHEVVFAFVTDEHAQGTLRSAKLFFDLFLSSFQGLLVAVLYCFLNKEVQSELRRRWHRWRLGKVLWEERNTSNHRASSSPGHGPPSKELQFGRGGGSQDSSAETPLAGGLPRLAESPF

Row | Ki | SMILES
1 | 266 nM | CC(C)CC(Cc1ccc(-c2ccc(C(C)(C)C)cc2)cc1)c1ccc(C(=O)NCCC(=O)O)cc1 (centres unmarked)
2 | 232 nM | CCCCCCC(Cc1ccc(-c2ccc(C(F)(F)F)cc2)cc1)c1ccc(C(=O)NCCC(=O)O)cc1 (centres unmarked)

Reference: patent publication US7863329B2 (Eli Lilly and Company, priority 2005, dated 2011)
